Source: PubChem BioAssay AID2060605 (Molecular Pharmacology Branch, DTP, NCI, 2025)
Several values for one entry are separate records, joined by “and”; a condition that tells them apart may be missing. Identical values can stand only once.

Test system: 947758-054-R-J2-PDC spheroid growth, percent test/control
Assay: Anticancer human tumor 947758-054-R-J2-PDC patient-derived colon adenocarcinoma cell line growth inhibition [CLK]
Details: spheroids with HUVEC and MSC; for viability, T/C: stronger effect = lower value
Method in brief: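 Patient-derived tumor cells grown as complex spheroids with HUVEC endothelial cells and mesenchymal stem cells, treated with drug combinations. Concentrations descend in half-log steps from near clinical Cmax, or from 10 microM if Cmax unknown.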

[1] = curve of first compound, second compound 0.0316 µM
[2] = curve of first compound, second compound 0.1 µM
[3] = curve of first compound, second compound 0.316 µM
[4] = curve of first compound, second compound 1 µM
[5] = curve of first compound, second compound 3.16 µM
[6] = curve of first compound, second compound 10 µM
[7] = second compound 0.0316 µM, first compound 0.0316 µM
[8] = second compound 0.0316 µM, first compound 0.1 µM
[9] = second compound 0.0316 µM, first compound 0.316 µM
[10] = second compound 0.0316 µM, first compound 1 µM
[11] = second compound 0.0316 µM, first compound 3.16 µM
[12] = second compound 0.0316 µM, first compound 10 µM
[13] = second compound 0.1 µM, first compound 0.0316 µM
[14] = second compound 0.1 µM, first compound 0.1 µM
[15] = second compound 0.1 µM, first compound 0.316 µM
[16] = second compound 0.1 µM, first compound 1 µM
[17] = second compound 0.1 µM, first compound 3.16 µM
[18] = second compound 0.1 µM, first compound 10 µM
[19] = second compound 0.316 µM, first compound 0.0316 µM
[20] = second compound 0.316 µM, first compound 0.1 µM
[21] = second compound 0.316 µM, first compound 0.316 µM
[22] = second compound 0.316 µM, first compound 1 µM
[23] = second compound 0.316 µM, first compound 3.16 µM
[24] = second compound 0.316 µM, first compound 10 µM
[25] = second compound 1 µM, first compound 0.0316 µM
[26] = second compound 1 µM, first compound 0.1 µM
[27] = second compound 1 µM, first compound 0.316 µM
[28] = second compound 1 µM, first compound 1 µM
[29] = second compound 1 µM, first compound 3.16 µM
[30] = second compound 1 µM, first compound 10 µM
[31] = second compound 3.16 µM, first compound 0.0316 µM
[32] = second compound 3.16 µM, first compound 0.1 µM
[33] = second compound 3.16 µM, first compound 0.316 µM
[34] = second compound 3.16 µM, first compound 1 µM
[35] = second compound 3.16 µM, first compound 3.16 µM
[36] = second compound 3.16 µM, first compound 10 µM
[37] = second compound 10 µM, first compound 0.0316 µM
[38] = second compound 10 µM, first compound 0.1 µM
[39] = second compound 10 µM, first compound 0.316 µM
[40] = second compound 10 µM, first compound 1 µM
[41] = second compound 10 µM, first compound 3.16 µM
[42] = second compound 10 µM, first compound 10 µM
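Note: spheroids exposed to compounds for one week before readout.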
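Throughout, for viability, T/C: 100% = DMSO vehicle control wells.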

In the case of `O=C(c1cc(Cc2n[nH]c(=O)c3ccccc23)ccc1F)N1CCN(C(=O)C2CC2)CC1`, the viability, T/C (compound 0.0316 µM) is reported as 94.1% and 101%, the viability, T/C (compound 0.1 µM) is reported as 93.6% and 90% and the viability, T/C (compound 0.316 µM) is reported as 106% and 101%. For the same compound, the viability, T/C (compound 1 µM) was 107%, the viability, T/C (compound 3.16 µM) was 131% and 101% and the viability, T/C (compound 10 µM) was 177% and 120%. The IC50 (curve of compound) was over 10 µM.

With `CCN1CCN(Cc2ccc(Nc3ncc(F)c(-c4cc(F)c5nc(C)n(C(C)C)c5c4)n3)nc2)CC1` the viability, T/C (compound 0.00316 µM) was 81.3% and 94.8%, the viability, T/C (compound 0.01 µM) was 81.6% and 106% and the viability, T/C (compound 0.0316 µM) was 139% and 190%. For the same compound, the viability, T/C (compound 0.1 µM) was 164% and 182%, the viability, T/C (compound 0.316 µM) was 130% and 126% and the viability, T/C (compound 1 µM) was 43% and 55.8%. For the same compound, the IC50 (curve of compound) was 0.9 µM and > 1 µM.

`O=C(c1cc(Cc2n[nH]c(=O)c3ccccc23)ccc1F)N1CCN(C(=O)C2CC2)CC1` + CNC(=O)c1ccc(Nc2nc(OC3CCCC3)c3c(-c4ccc5nc(C)oc5c4)c[nH]c3n2)c(OC)c1 showed an IC50 [1] of over 10 µM, an IC50 [2] of over 10 µM and an IC50 [3] of over 10 µM. It also gave an IC50 [4] of over 10 µM, an IC50 [5] of 0.156 µM and an IC50 [6] of under 0.0316 µM. For the same compound, the viability, T/C [7] was 101%, the viability, T/C [8] was 97.3% and the viability, T/C [9] was 96.3%. The viability, T/C [10] was 93.5%, the viability, T/C [11] was 113% and the viability, T/C [12] was 80.9%. For the same compound, the viability, T/C [13] was 110%, the viability, T/C [14] was 102% and the viability, T/C [15] was 100%. For the same compound, the viability, T/C [16] was 99.4%, the viability, T/C [17] was 110% and the viability, T/C [18] was 73.7%. The viability, T/C [19] was 94.3%, the viability, T/C [20] was 94.8% and the viability, T/C [21] was 64.5%. For the same compound, the viability, T/C [22] was 71.5%, the viability, T/C [23] was 103% and the viability, T/C [24] was 65%. For the same compound, the viability, T/C [25] was 63.2%, the viability, T/C [26] was 53% and the viability, T/C [27] was 53.7%. For the same compound, the viability, T/C [28] was 64.1%, the viability, T/C [29] was 69.2% and the viability, T/C [30] was 35.8%. The viability, T/C [31] was 56.2%, the viability, T/C [32] was 43.6% and the viability, T/C [33] was 45.4%. It also gave a viability, T/C [34] of 52.7%, a viability, T/C [35] of 54% and a viability, T/C [36] of 37.4%. For the same compound, the viability, T/C [37] was 47.9%, the viability, T/C [38] was 40.9% and the viability, T/C [39] was 41.5%. For the same compound, the viability, T/C [40] was 34.4%, the viability, T/C [41] was 35.2% and the viability, T/C [42] was 35.1%.

With `CC(Nc1ccc2c(c1)OCCn1cc(N3C(=O)OCC3C(F)F)nc1-2)C(N)=O` (centres undefined) the viability, T/C (compound 0.0316 µM) was 106% and 109%, the viability, T/C (compound 0.1 µM) was 96.5% and 102% and the viability, T/C (compound 0.316 µM) was 99.4% and 98.8%. For the same compound, the viability, T/C (compound 1 µM) was 93% and 85.2%, the viability, T/C (compound 3.16 µM) was 92.2% and 93.3% and the viability, T/C (compound 10 µM) was 93.6% and 88.5%. The IC50 (curve of compound) was over 10 µM.

For `C=CC(=O)N1CCN(c2nc(=O)n(-c3c(C)ccnc3C(C)C)c3nc(-c4c(O)cccc4F)c(F)cc23)C(C)C1` (centres undefined) + CNC(=O)c1ccc(Nc2nc(OC3CCCC3)c3c(-c4ccc5nc(C)oc5c4)c[nH]c3n2)c(OC)c1, the IC50 [1] was over 10 µM, the IC50 [2] was over 10 µM and the IC50 [3] was 6.2 µM. It also gave an IC50 [4] of under 0.0316 µM, an IC50 [5] of under 0.0316 µM and an IC50 [6] of under 0.0316 µM. The viability, T/C [7] was 64.6%, the viability, T/C [8] was 69.5% and the viability, T/C [9] was 68.2%. It also gave a viability, T/C [10] of 70.9%, a viability, T/C [11] of 65.9% and a viability, T/C [12] of 51.8%. It also gave a viability, T/C [13] of 78.4%, a viability, T/C [14] of 72.3% and a viability, T/C [15] of 66.1%. The viability, T/C [16] was 75.5%, the viability, T/C [17] was 68% and the viability, T/C [18] was 51.3%. The viability, T/C [19] was 70.4%, the viability, T/C [20] was 68.8% and the viability, T/C [21] was 47.1%. For the same compound, the viability, T/C [22] was 80.7%, the viability, T/C [23] was 77.5% and the viability, T/C [24] was 36.7%. For the same compound, the viability, T/C [25] was 43.3%, the viability, T/C [26] was 45.8% and the viability, T/C [27] was 36.9%. For the same compound, the viability, T/C [28] was 54.5%, the viability, T/C [29] was 45% and the viability, T/C [30] was 20%. The viability, T/C [31] was 43.1%, the viability, T/C [32] was 38.1% and the viability, T/C [33] was 40.9%. The viability, T/C [34] was 40.9%, the viability, T/C [35] was 31.2% and the viability, T/C [36] was 16%. For the same compound, the viability, T/C [37] was 32.1%, the viability, T/C [38] was 28.1% and the viability, T/C [39] was 28.6%. For the same compound, the viability, T/C [40] was 25.7%, the viability, T/C [41] was 21.1% and the viability, T/C [42] was 15.1%.

`C=CC(=O)Nc1cc(Nc2nccc(-c3cn(C)c4ccccc34)n2)c(OC)cc1N(C)CCN(C)C` was tested, and the viability, T/C (compound 0.000949 µM) was 85.6% and 108%, the viability, T/C (compound 0.003 µM) was 62.3% and 94.7% and the viability, T/C (compound 0.00949 µM) was 90.8% and 103%. For the same compound, the viability, T/C (compound 0.03 µM) was 94.7% and 69.1%, the viability, T/C (compound 0.0949 µM) was 74.3% and 92.2% and the viability, T/C (compound 0.3 µM) was 87.2% and 78.5%. It also gave an IC50 (curve of compound) of over 0.3 µM.

`COC1C=CCC(C)C(C)S(=O)(=O)NC(=O)c2ccc3c(c2)N(CC2CCC21)CC1(CCCc2cc(Cl)ccc21)CO3` (centres undefined) + CNC(=O)c1ccc(Nc2nc(OC3CCCC3)c3c(-c4ccc5nc(C)oc5c4)c[nH]c3n2)c(OC)c1 was tested, and the IC50 [1] was 7.66 µM, the IC50 [2] was 5.3 µM and the IC50 [3] was under 0.0316 µM. The IC50 [4] was under 0.0316 µM, the IC50 [5] was under 0.0316 µM and the IC50 [6] was under 0.0316 µM. The viability, T/C [7] was 75.6%, the viability, T/C [8] was 83.8% and the viability, T/C [9] was 90.3%. The viability, T/C [10] was 116%, the viability, T/C [11] was 95.3% and the viability, T/C [12] was 37.3%. For the same compound, the viability, T/C [13] was 73.4%, the viability, T/C [14] was 71.2% and the viability, T/C [15] was 55.5%. For the same compound, the viability, T/C [16] was 65.1%, the viability, T/C [17] was 72.1% and the viability, T/C [18] was 28.5%. For the same compound, the viability, T/C [19] was 61.8%, the viability, T/C [20] was 53.6% and the viability, T/C [21] was 37.2%. It also gave a viability, T/C [22] of 44.1%, a viability, T/C [23] of 49.2% and a viability, T/C [24] of 16.7%. For the same compound, the viability, T/C [25] was 37.5%, the viability, T/C [26] was 36.1% and the viability, T/C [27] was 24.4%. For the same compound, the viability, T/C [28] was 29.5%, the viability, T/C [29] was 26.4% and the viability, T/C [30] was 12.4%. The viability, T/C [31] was 28.3%, the viability, T/C [32] was 24.4% and the viability, T/C [33] was 21.8%. It also gave a viability, T/C [34] of 18.2%, a viability, T/C [35] of 18.1% and a viability, T/C [36] of 15.3%. It also gave a viability, T/C [37] of 29.4%, a viability, T/C [38] of 23.3% and a viability, T/C [39] of 13.2%. The viability, T/C [40] was 15.4%, the viability, T/C [41] was 10.6% and the viability, T/C [42] was 13.5%.
